Measured values taken from US20210047291A1, “PESTICIDALLY ACTIVE HETEROCYCLIC DERIVATIVES WITH SULFUR CONTAINING SUBSTITUENTS” (SYNGENTA PARTICIPATIONS AG, priority 2018, published 2021).

What was measured:
Assay type in all cases: in vivo
[1] = tested on: Spodoptera littoralis (Egyptian Cotton Leaf Worm); test: Example B9: Spodoptera littoralis, cotton leaf discs (mortality, anti-feeding, growth inhibition); settings: foliar, 72 h, application rate of 200 ppm, L1 larvae, 3 days after infestation, read-out: control (mortality, anti-feeding effect or growth inhibition)
In short: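 Cotton leaf discs on agar sprayed with aqueous dilutions of 10,000 ppm DMSO stocks, dried, then infested with five L1 larvae. Mortality, anti-feeding and growth inhibition scored against untreated discs 3 days after infestation. Control recorded when any one category exceeds the untreated sample.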

[2] = tested on: Myzus persicae (Green peach aphid); test: Example B6: Myzus persicae systemic activity, pea seedlings; settings: Myzus persicae, 144 h; test rate of 24 ppm; mixed ages; 6 days after placing seedlings into test solutions; read-out: mortality
Method: Roots of pea seedlings infested with an aphid population of mixed ages were placed directly into aqueous test solutions prepared from 10,000 DMSO stock solutions. The samples were assessed for mortality 6 days after placing seedlings into test solutions.

Melodoigyne incognita = test: Example B14: Melodoigyne incognita juvenile mobility, in vitro profiling in 96 well plate; settings: 200 ppm; after 24 h; second stage juveniles; read-out: control (juvenile mobility)
In short: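 Second-stage juveniles (100–150 per well, freshly harvested) were exposed in triplicate to test solutions prepared at 1000, 200, 100, 50, 25 and 12.5 ppm before nematode suspension was added. Plates were kept 24 h at room temperature in the dark. Juvenile mobility was measured by imaging and compared with 12 untreated replicates.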

[3] = tested on: Myzus persicae (Green peach aphid); test: Example B19: Myzus persicae, mixed population, contact/feeding, pepper plants; settings: Concentration 3 ppm, MYZUPE (contact)
Method: Pepper plants were infested with mixed aged aphid population and were treated 1 day after infestation with diluted test solutions in a spray chamber. 5 days after treatment samples were assessed for mortality.

[4] = tested on: Frankliniella occidentalis (Western Flower Thrips); test: Example B23: Frankliniella occidentalis, mixed population, systemic into soil (drench), French bean plants; settings: Concentration 3 ppm, FRANOC (drench)
Method: French bean plants cultivated in field soil, were treated via drench application and 1 day after treatment they were infested with mixed aged thrips population. 8 days after infestation samples were assessed for mortality and phytotoxicity symptoms.

[5] = tested on: Tetranychus urticae (Two-Spotted Spider Mite); test: Example B10: Tetranychus urticae feeding/contact activity, bean leaf discs; settings: foliar, 192 h, application rate of 200 ppm, mixed population (mobile stages), 8 days after infestation
Method: Bean leaf discs on agar in 24-well microtiter plates were sprayed with aqueous test solutions prepared from 10,000 ppm DMSO stock solutions. After drying the leaf discs were infested with a mite population of mixed ages. The samples were assessed for mortality on mixed population (mobile stages) 8 days after infestation.

[6] = tested on: Frankliniella occidentalis (Western Flower Thrips); test: Example B4: Frankliniella occidentalis feeding/contact activity, sunflower leaf discs; settings: foliar, 168 h, application rate of 200 ppm, mixed ages, 7 days after infestation
Method: Sunflower leaf discs were placed on agar in 24-well microtiter plates and sprayed with aqueous test solutions prepared from 10,000 DMSO stock solutions. After drying the leaf discs were infested with a Frankliniella population of mixed ages. The samples were assessed for mortality 7 days after infestation.

[7] = tested on: Myzus persicae (Green peach aphid); test: Example B5: Myzus persicae feeding/contact activity, sunflower leaf discs; settings: Myzus persicae, foliar, 144 h; application rate of 200 ppm; mixed ages; 6 days after infestation; read-out: mortality
Method: Sunflower leaf discs were placed onto agar in a 24-well microtiter plate and sprayed with aqueous test solutions prepared from 10,000 ppm DMSO stock solutions. After drying, the leaf discs were infested with an aphid population of mixed ages. The samples were assessed for mortality 6 days after infestation.

[8] = tested on: Nilaparvata lugens (Brown Plant Hopper); test: Example B21: Nilaparvata lugens, larvicide, feeding/contact, rice plants; settings: Concentration 3 ppm, NILALU (contact)
Method: Rice plants were treated with the diluted test solutions in a spray chamber. After drying plants were infested with ˜20 N3 nymphs. 7 days after the treatment samples were assessed for mortality and growth regulation.

[9] = tested on: Plutella xylostella (Diamond Back Moth); test: Example B7: Plutella xylostella, artificial diet, L2 larvae; settings: 120 h, application rate of 200 ppm, L2 larvae, 5 days after infestation, read-out: effect in at least one of the two categories (mortality or growth inhibition)
Method: (§1) 24-well microtiter plates with artificial diet were treated with aqueous test solutions prepared from 10,000 ppm DMSO stock solutions by pipetting. After drying, the plates were infested with L2 larvae (10 to 15 per well). The samples were assessed for mortality and growth inhibition in comparison to untreated samples 5 days after infestation.

[10] = tested on: Euschistus heros (Neotropical Brown Stink Bug); test: Example B3: Euschistus heros, soybean leaves, N2 nymphs; settings: Euschistus heros, 120 h; application rate of 200 ppm; N2 nymphs; 5 days after infestation; read-out: effect in at least one of the two categories (mortality or growth inhibition)
Method: Soybean leaves on agar in 24-well microtiter plates were sprayed with aqueous test solutions prepared from 10,000 ppm DMSO stock solutions. After drying the leaves were infested with N2 nymphs. The samples were assessed for mortality and growth inhibition in comparison to untreated samples 5 days after infestation.

[11] = tested on: Bemisia tabaci (Cotton White Fly); test: Example B1: Bemisia tabaci feeding/contact activity, cotton leaf discs; settings: foliar, 144 h, application rate of 200 ppm, adult white flies, 6 days after incubation
Method: Cotton leaf discs were placed on agar in 24-well microtiter plates and sprayed with aqueous test solutions prepared from 10,000 ppm DMSO stock solutions. After drying the leaf discs were infested with adult white flies. The samples were checked for mortality 6 days after incubation.

[12] = tested on: Frankliniella occidentalis (Western Flower Thrips); test: Example B22: Frankliniella occidentalis, mixed population, contact/feeding, French bean plants; settings: Concentration 50 ppm, FRANOC (contact)
Method: French bean plants were treated with diluted test solutions in a spray chamber. After drying plants were infested with a mixed aged thrips population. 7 days after infestation, samples were assessed for mortality.

[13] = tested on: Myzus persicae (Green peach aphid); test: Example B20: Myzus persicae, mixed population, systemic into soil (drench), pea seedlings; settings: Concentration 0.2 ppm, MYZUPE (drench)
Method: Pea seedlings cultivated in field soil and infested 1 day before treatment with mixed aged aphid population were treated as drench application and checked for mortality 7 days after treatment.

[14] = tested on: Diabrotica Balteata (Corn Root Worm); test: Example B2: Diabrotica balteata, maize sprouts, L2 larvae; settings: Diabrotica balteata, 96 h, application rate of 200 ppm; L2 larvae; 4 days after infestation; read-out: effect in at least one of the two categories (mortality or growth inhibition)
Method: as §1, with “Maize sprouts placed onto an agar layer in 24-well” for “24-well”, “plates” for “plates with artificial diet”, “spraying.” for “pipetting.”, “(6” for “(10”, “10” for “15”, “4” for “5”

[15] = tested on: Plutella xylostella (Diamond Back Moth); test: Example B12: Plutella xylostella, artificial diet, eggs; settings: 192 h, application rate of 200 ppm, 8 days after infestation, read-out: effect in at least one of the two categories (mortality or growth inhibition)
Method: 24-well microtiter plates with artificial diet were treated with aqueous test solutions prepared from 10,000 ppm DMSO stock solutions by pipetting. After drying, Plutella eggs were pipetted through a plastic stencil onto a gel blotting paper and the plate was closed with it. The samples were assessed for mortality and growth inhibition in comparison to untreated samples 8 days after infestation. The following compounds gave an effect of at least 80% in at least one of the two categories (mortality or growth inhibition) at an application rate of 200 ppm: P46.

CCS(=O)(=O)c1cc(N(C)C(C)=O)cnc1-c1nc2cc(C(F)(F)F)ncc2n1C [P6, N-[5-ethylsulfonyl-6-[3-methyl-6-(trifluoromethyl)imidazo[4,5-c]pyridin-2-yl]-3-pyridyl]-N-methyl-acetamide]
percent control (mortality, anti-feedant effect or growth inhibition) at 200 ppm [1]: ≥ 80%
mortality at 24 ppm [2]: ≥ 80%
pest or weed control at 200 ppm (Melodoigyne incognita): ≥ 80%
mortality at 3 ppm [3]: 70%
mortality at 3 ppm [4]: 92.5%
mortality at 200 ppm [5]: ≥ 80%
mortality at 200 ppm [6]: ≥ 80%
mortality at 200 ppm [7]: ≥ 80%
mortality at 3 ppm [8]: 80%
percent effect (mortality or growth inhibition) at 200 ppm [9]: ≥ 80%
percent effect (mortality or growth inhibition) at 200 ppm [10]: ≥ 80%
mortality at 200 ppm [11]: ≥ 80%
mortality at 50 ppm [12]: 98%
mortality at 0.2 ppm [13]: 92.5%
percent effect (mortality or growth inhibition) at 200 ppm [14]: ≥ 80%

CCS(=O)(=O)c1cc(N(C(C)=O)C(C)C)cnc1-c1nc2cc(C(F)(F)F)ncc2n1C [P46, N-[5-ethylsulfonyl-6-[3-methyl-6-(trifluoromethyl)imidazo[4,5-c]pyridin-2-yl]-3-pyridyl]-N-isopropyl-acetamide]
mortality at 24 ppm [2]: ≥ 80%
mortality at 200 ppm [5]: ≥ 80%
mortality at 200 ppm [6]: ≥ 80%
percent effect (mortality or growth inhibition) at 200 ppm [15]: ≥ 80%
mortality at 200 ppm [7]: ≥ 80%
percent effect (mortality or growth inhibition) at 200 ppm [10]: ≥ 80%
mortality at 200 ppm [11]: ≥ 80%
percent effect (mortality or growth inhibition) at 200 ppm [14]: ≥ 80%

CCS(=O)(=O)c1ccc(N(C)C(C)=O)nc1-c1nc2cc(C(F)(F)F)ncc2n1C [reference compound]
mortality at 3 ppm [3]: 20%
mortality at 3 ppm [4]: 35%
mortality at 3 ppm [8]: 30%
mortality at 50 ppm [12]: 0%
mortality at 0.2 ppm [13]: 50%
